Values joined by “and” are separate entries in the source; they are usually repeats but may differ in a detail not shown here. Equal entries are not always repeated. Where two headings read alike, the source gives them in different places. A value given as a limit tells only on which side of the number the result lay.

For data set [1], the system named is Herpes Simplex type 1 virus (HFEM strain). Description: plaque reduction assay in Vero cells infected with Herpes Simplex type 1 virus. It is filed as cell-based. The protocol:
(§1) Vero (African Green Monkey Kidney) cells were grown to confluence in 24 well multidishes, each well being 1.6 cm in diameter. The cells were infected with Herpes Simplex type 1 virus (HFEM strain) and overlaid with 0.5 mL of 0.9% agarose (w/v) in maintenance medium in concentrations ranging from 100 to 0.03 µg/ml in half-log dilution steps, were added in 0.5 mL volume. The virus infected cultures were then incubated at 37 °C for 4 days before fixing in 4% formaldehyde solution and staining with carbolfuchsin.
(Plaque reduction counts the foci of infection that form in a cell layer.)

Data set [2] is described as follows: cytotoxicity (minimum toxic concentration) in the infected Vero cell cultures. It is filed as cell-based, African Green Monkey. The following applies: monkey; minimum concentration of test compound which caused cytotoxicity; Vero cells, highest concentration tested 100 µg/ml; read-out: MTD. The protocol: as §1
Setting [3] is: Human alphaherpesvirus 1, 96 h, concentration causing 50% reduction in number of virus plaques, Vero cells, HSV-1 HFEM strain, 4 days at 37 C, read-out: PDD50 (the source's name).
[4] abbreviates: Human alphaherpesvirus 1, 96 h, same PD50 expressed in µM, Vero cells, HSV-1 HFEM strain, 4 days at 37 C, read-out: PDD50 (the source's name).
[5] abbreviates: Human alphaherpesvirus 1, Vero, 96 h, read-out: PDD50.

Turning to `O=C(CCl)OC[C@H]1O[C@@H](n2cc(/C=C/Br)c(=O)[nH]c2=O)C[C@@H]1OC(=O)CCl` [Example 1, E-5-(2-Bromovinyl)-3',5'-bis (chloroacetyl)-2'-deoxyuridine], the EC50 in data set [1] (setting [3]) was 0.14 µg/mL; in data set [1] (setting [4]), 0.29 µM. Also, in data set [2], the MCC at 96 h was more than 100 µg/mL.
With `O=C(CCl)OC[C@H]1O[C@@H](n2cc(/C=C/Br)c(=O)[nH]c2=O)C[C@@H]1O` [Example 2, E-5-(2-Bromovinyl)-5'-chloroacetyl-2'-deoxyuridine], the EC50 in data set [1] (setting [3]) is 0.12 µg/mL; in data set [1] (setting [4]), 0.29 µM. In addition, in data set [2], the MCC at 96 h is more than 100 µg/mL.
For the compound `CC(Cl)C(=O)OC[C@H]1O[C@@H](n2cc(/C=C/Br)c(=O)[nH]c2=O)C[C@@H]1OC(=O)C(C)Cl` (stereo partly drawn) [Example 4], the EC50 in data set [1] (setting [3]) was found to be 0.14 µg/mL; in data set [1] (setting [4]), 0.27 µM. Moreover, the MCC at 96 h in data set [2] is more than 100 µg/mL.
The corresponding values for `CC(Cl)C(=O)OC[C@H]1O[C@@H](n2cc(/C=C/Br)c(=O)[nH]c2=O)C[C@@H]1O` (stereo partly drawn) [Example 5] are 0.14 µg/mL, 0.33 µM and more than 100 µg/mL.
For the compound `CCCN(CCC)S(=O)(=O)c1ccc(C(=O)OCC(=O)OC[C@H]2O[C@@H](n3cc(/C=C/Br)c(=O)[nH]c3=O)C[C@@H]2OC(=O)COC(=O)c2ccc(S(=O)(=O)N(CCC)CCC)cc2)cc1` [Example 6, E-5-(2-Bromovinyl)-3',5'-Bis (4-dipropylsulphamoylbenzoyloxyacetyl)-2'-deoxyuridine], the EC50 in data set [1] (setting [3]) worked out at 2.03 µg/mL; in data set [1] (setting [4]), 2.06 µM. The MCC at 96 h in data set [2] is more than 100 µg/mL.
In the same order, the values of `CCCN(CCC)S(=O)(=O)c1ccc(C(=O)OCC(=O)OC[C@H]2O[C@@H](n3cc(/C=C/Br)c(=O)[nH]c3=O)C[C@@H]2O)cc1` [Example 7, E-5-(2 Bromovinyl)-5'-(4-dipropylsulphamoylbenzoyloxyacetyl)-2'-deoxyuridine] are 0.24 µg/mL, 0.37 µM and more than 100 µg/mL.
The corresponding values for `CCCN(CCC)S(=O)(=O)c1ccc(C(=O)OCC(=O)O[C@H]2C[C@H](n3cc(/C=C/Br)c(=O)[nH]c3=O)O[C@@H]2CO)cc1` [Example 8, E-5-(2-Bromovinyl)-3'-(4-dipropylsulphanoylbenzoyloxyacetyl)-2'-deoxyuridine] are 0.22 µg/mL, 0.33 µM and more than 100 µg/mL.
On to `CC(C)(Oc1ccc(Cl)cc1)C(=O)OCC(=O)OC[C@H]1O[C@@H](n2cc(/C=C/Br)c(=O)[nH]c2=O)C[C@@H]1OC(=O)COC(=O)C(C)(C)Oc1ccc(Cl)cc1` [Example 9, E-5-(2 Bromovinyl)-3',5'-bis(2-(4-chlorophenoxy)-2-methylpropionyloxy-acetyl]-2'-deoxyuridine], for which the EC50 in data set [1] (setting [3]) was 1.47 µg/mL; in data set [1] (setting [4]), 1.75 µM. The MCC at 96 h in data set [2] was more than 100 µg/mL.
In the same order, the values of `CC(=O)OC(C)C(=O)OC[C@H]1O[C@@H](n2cc(/C=C/Br)c(=O)[nH]c2=O)C[C@@H]1O` (stereo partly drawn) [Example 10, E-5-(2-Bromovinyl)-5'-(2-acetoxypropionyl)-2'-deoxyuridine] are 0.18 µg/mL, 0.4 µM and more than 100 µg/mL.
Regarding `CC(C)(C)[Si](C)(C)O[C@@H](Cc1ccccc1)C(=O)OC[C@H]1O[C@@H](n2cc(/C=C/Br)c(=O)[nH]c2=O)C[C@@H]1OC(=O)[C@H](Cc1ccccc1)O[Si](C)(C)C(C)(C)C` [Example 18, E-5-(2-Bromovinyl)-3',5'-bis(L-2-t-butyldimethylsilyloxy-3-penylpropionyl)-2'-deoxyuridine], the EC50 in data set [1] (setting [5]) was more than 100 µg/mL. Moreover, in data set [2], the MCC at 96 h was more than 100 µg/mL.
Regarding `O=C(OC[C@H]1O[C@@H](n2cc(/C=C/Br)c(=O)[nH]c2=O)C[C@@H]1OC(=O)[C@@H](O)Cc1ccccc1)[C@@H](O)Cc1ccccc1` [Example 19, E-5-(2-bromovinyl)-3', 5' -bis(L-2-hydroxy-3-phenylpropionyl)-2'-deoxyuridine], the EC50 came to 0.43 µg/mL in data set [1] (setting [3]) and 0.68 µM in data set [1] (setting [4]). Further, the MCC at 96 h in data set [2] is more than 100 µg/mL.
As to `O=C(O[C@H]1C[C@H](n2cc(/C=C/Br)c(=O)[nH]c2=O)O[C@@H]1CO)C(Cl)c1ccccc1` (stereo partly drawn) [Example 20, E-5-(2-Bromovinyl)-3'-(2-chlorophenylacetyl)-2'-deoxyuridine], the EC50 in data set [1] (setting [3]) amounted to 0.18 µg/mL; in data set [1] (setting [4]), 0.37 µM. Besides, the MCC at 96 h in data set [2] is more than 100 µg/mL.
The corresponding values for `O=C(OC[C@H]1O[C@@H](n2cc(/C=C/Br)c(=O)[nH]c2=O)C[C@@H]1O)C(Cl)c1ccccc1` (stereo partly drawn) [Example 21] are 0.07 µg/mL, 0.14 µM and more than 100 µg/mL.
The corresponding values for `O=C(OC[C@H]1O[C@@H](n2cc(/C=C/Br)c(=O)[nH]c2=O)C[C@@H]1OC(=O)C(Cl)c1ccccc1)C(Cl)c1ccccc1` (stereo partly drawn) [Example 22] are 0.34 µg/mL, 0.53 µM and more than 100 µg/mL.
Regarding `O=C(OC[C@H]1O[C@@H](n2cc(/C=C/Br)c(=O)[nH]c2=O)C[C@@H]1O)[C@@H](O)c1ccccc1` [Example 23, 5-(E-2-Bromovinyl)-2'-deoxy-5'-O-[(2S)-hydroxyphenylacetyl]uridine], the EC50 amounted to 0.16 µg/mL in data set [1] (setting [3]) and 0.34 µM in data set [1] (setting [4]). Also, the MCC at 96 h in data set [2] is more than 100 µg/mL.
For `O=C(OC[C@H]1O[C@@H](n2cc(/C=C/Br)c(=O)[nH]c2=O)C[C@@H]1OC(=O)[C@@H](O)c1ccccc1)[C@@H](O)c1ccccc1` [Example 24, 5-(E-2-Bromovinyl)-2'-deoxy-3', 5'-di-O-[(2S)-hydroxyphenylacetyl]uridine], the EC50 in data set [1] (setting [3]) was determined as 0.45 µg/mL; in data set [1] (setting [4]), 0.75 µM. Moreover, the MCC at 96 h in data set [2] is more than 100 µg/mL.
On to `CC(C)C[C@H](O)C(=O)OC[C@H]1O[C@@H](n2cc(/C=C/Br)c(=O)[nH]c2=O)C[C@@H]1O` [Example 25, 5-(E-2-Bromovinyl)-2'-deoxy-5'-0-(L-2-hydroxy-4-methyl-pentanoyl)uridine], for which the EC50 in data set [1] (setting [3]) was determined as 0.15 µg/mL; in data set [1] (setting [4]), 0.34 µM. In addition, the MCC at 96 h in data set [2] was more than 100 µg/mL.
In the same order, the values of `CC(C)C[C@H](O)C(=O)OC[C@H]1O[C@@H](n2cc(/C=C/Br)c(=O)[nH]c2=O)C[C@@H]1OC(=O)[C@@H](O)CC(C)C` [Example 26, 5-(E-2-Bromovinyl)-2'-deoxy-3',5-di-O-(L-2-hydroxy-4-methylpentanoyl)uridine] are 0.16 µg/mL, 0.29 µM and more than 100 µg/mL.
The corresponding values for `COCC(=O)OC[C@H]1O[C@@H](n2cc(/C=C/Br)c(=O)[nH]c2=O)C[C@@H]1O` [Example 27, 5-(E-2-Bromovinyl)-2'-deoxy-5'-O-(methoxyacetyl)uridine] are 0.12 µg/mL, 0.3 µM and more than 100 µg/mL.
In the same order, the values of `COCC(=O)OC[C@H]1O[C@@H](n2cc(/C=C/Br)c(=O)[nH]c2=O)C[C@@H]1OC(=O)COC` [Example 28, 5-(E-2-Bromovinyl)-2'-deoxy-3',5'-di-O-(methoxyacetyl)-uridine] are 0.17 µg/mL, 0.36 µM and more than 100 µg/mL.
`O=C(OC[C@H]1O[C@@H](n2cc(/C=C/Br)c(=O)[nH]c2=O)C[C@@H]1O)[C@H](O)c1ccccc1` [Example 29]: the values for the EC50 in data set [1] (setting [3]) and in data set [1] (setting [4]) were 0.22 µg/mL and 0.47 µM, respectively. For the same compound, the MCC at 96 h in data set [2] was more than 100 µg/mL.
As for `O=C(OC[C@H]1O[C@@H](n2cc(/C=C/Br)c(=O)[nH]c2=O)C[C@@H]1OC(=O)[C@H](O)c1ccccc1)[C@H](O)c1ccccc1` [Example 30], the EC50 in data set [1] (setting [3]) worked out at 0.66 µg/mL; in data set [1] (setting [4]), 1.1 µM. The MCC at 96 h in data set [2] was more than 100 µg/mL.
With `CC(C)C[C@H](O[Si](C)(C)C(C)(C)C)C(=O)OC[C@H]1O[C@@H](n2cc(/C=C/Br)c(=O)[nH]c2=O)C[C@@H]1O` [Example 31, 5-(E-2-Bromovinyl)-5'-O-(L-2-t-butyldimethylsilyloxy-4-methylpentanoyl)-2'-deoxyurudine], the EC50 in data set [1] (setting [5]) was 0.53 µg/mL and 940 nM. For the same compound, the MCC at 96 h in data set [2] was more than 100 µg/mL.
As for `CC(C)C[C@H](O[Si](C)(C)C(C)(C)C)C(=O)OC[C@H]1O[C@@H](n2cc(/C=C/Br)c(=O)[nH]c2=O)C[C@@H]1OC(=O)[C@H](CC(C)C)O[Si](C)(C)C(C)(C)C` [Example 32, 5-(E-2-Bromovilnyl)-3' ,5'-di-O-(L-2-t-butyldimethylsilyloxy-4-methylpentanoyl)-2'-deoxyuridirie], the EC50 in data set [1] (setting [5]) was 4.9 µg/mL and 6.2 µM. Moreover, in data set [2], the MCC at 96 h is more than 100 µg/mL.
Take `CCC(Br)C(=O)OC[C@H]1O[C@@H](n2cc(/C=C/Br)c(=O)[nH]c2=O)C[C@@H]1O` (stereo partly drawn) [Example 33, 5-(E-2-Bromovin^yl)-5'-0-(2-bromobutyryl)-2'-deoxyuridine]: the values for the EC50 in data set [1] (setting [3]) and in data set [1] (setting [4]) were 0.16 µg/mL and 0.37 µM, respectively. Also, in data set [2], the MCC at 96 h is more than 100 µg/mL.
In the same order, the values of `CCC(Br)C(=O)OC[C@H]1O[C@@H](n2cc(/C=C/Br)c(=O)[nH]c2=O)C[C@@H]1OC(=O)C(Br)CC` (stereo partly drawn) [Example 34, 5-(E-2-Bromovinyl)-3'-5'-di-O-(2-bromobutyryl) -2'-deoxyuridine] are 0.2 µg/mL, 0.32 µM and 100 µg/mL.
Take `O=C(COc1ccccc1)OC[C@H]1O[C@@H](n2cc(/C=C/Br)c(=O)[nH]c2=O)C[C@@H]1O` [Example 35, 5-(E-2-Bromovinyl)-2'-deoxy-5'-O-(phenoxyacetyl)uridine]: the EC50 in data set [1] (setting [3]) came out at 0.18 µg/mL; in data set [1] (setting [4]) it was 0.38 µM. In addition, the MCC at 96 h in data set [2] was more than 100 µg/mL.

For the origin of these results see patent EP0097039A1, “5-(E-2-halovinyl)-2'-deoxyuridine derivatives, processes for their preparation, pharmaceutical compositions containing them, and their use in treating viral infections” (BEECHAM GROUP PLC, priority 1982, dated 1983).
